Patent US20080214563A1, “Benzimidazole Thiophene Compounds As Plk Modulators” (priority 2005, published 2008)

Assays:
Colo 205 = assay: Cell-Titer Glo Cell Growth Inhibition Assay, COLO205; type: cell-based; conditions: Homo sapiens, CellTiter-Glo, 72 h, read-out: CTG COLO205 IC50
Method: (§1) A549-L (human lung), BT474 (human breast), Colo 205 (human colon), H1299 (human lung), Hela (human cervix), HCT-116 (human colon), HN5 (human head and neck), HT29 (human colon), LNCap (human prostate), MCF7 (human breast), MDA-MB468 (human breast), MX-1 (human breast), RPMI 8226 (human peripheral blood), SKOV3 (human ovary) and P388 (murine leukemia) cell lines were cultured in RPMI1640 containing 10% fetal bovine serum at 37° C. in a 5% CO2 incubator. Cell lines were split into T75 flasks (Falcon #353136) two to three days prior to assay set up at density which yields approximately 70-80% confluency at time of harvest for assay. Cells were harvested using 0.25% trypsin with EDTA (Glibco/Invitrogen #25200-056), Cell counts were performed on cell suspensions using Trypan Blue exclusion staining, cells were then plated in 105 uL of culture media per well at the following densities in 96 well Costar #3916 black flat bottom plates: All human cell lines were plated at 500 cells/well. P388 were plated at 250 cells/well. All plates were placed at 5% CO2 37° C. overnight and then test compounds were added the following day. One plate of each cell type is treated with CellTiter-Glo (Promega #G7573) for a day 0 proliferation measurement and read as described below. The test compounds are prepared in clear U bottom polypropylene 96 well plates (Falcon #35-1190 with consecutive two fold dilutions. 9 uL of these dilutions was added into each well of the cell plates. The final concentration of DMSO in all wells is 0.15%. Cells were incubated at 37° C., 5% CO2 for 72 h. Following 72 h of incubation with compounds each plate was developed and read. CellTiter-Glo reagent was added to assay plates using a volume equivalent to the cell culture volume in the wells. Plates were shaken for approximately two minutes and incubated at room temperature for approximately 15 min and the chemiluminescent signal is read on the Victor V or Envison 2100 reader. […] Concentration of compound that inhibited 50% of cell growth (IC50) was analysis by 4 or 6 parameter fit of data using XLfit, value of no cell addition was subtracted from all samples for background.

HCT116 = assay: Methylene Blue Cell Growth Inhibition Assay, HCT116; type: cell-based; conditions: Homo sapiens, HCT-116, 72 h, read-out: MEB HCT116 IC50
Method: (§2) Normal human foreskin fibroblasts (HFF), human colon (HCT116, RKO), lung (H460, A549) and breast (MCF7) tumor cell lines were cultured in high glucose DMEM (Life Technologies) containing 10% fetal bovine serum (FBS) at 37° C. in a humidified 5% CO2, 95% air incubator. Cells were harvested using trypsin/EDTA, counted using a haemocytometer, and plated in 100 μL of culture media per well, at the following densities, in a 96-well tissue culture plate (Falcon 3075): HFF 5,000 cells/well, HCT116 3,000 cells/well, RKO 2,500 cells/well, H460 2,500 cells/well, A549 5,000 cells/well, MCF7 4,000 cells/well. The next day, compounds were diluted in low glucose DMEM containing 100 μg/mL gentamicin, at twice the final required concentration, from 10 mM stock solutions in DMSO. 100 μL/well of these dilutions were added to the 100 μL of media currently in the assay plates. Medium containing 0.6% DMSO was added to control wells. The final concentration of DMSO in all wells was 0.3%. Cells were incubated at 37° C., 5% CO2 for 72 h. Medium was removed by aspiration. Cell biomass was estimated by staining cells with 80 μL per well methylene blue (Sigma M9140, 0.5% in 50:50 ethanol:water), and incubation at room temperature for 30-60 min. Stain was removed by aspiration and the plates rinsed by immersion in water, then air-dried. To release stain from the cells, 100 μL of solubilization solution was added (1% N-lauroyl sarcosine, Sodium salt, Sigma L5125, in PBS), and plates were shaken gently for about 30 min. Optical density at 620 nm was measured on a microplate reader. Percent inhibition of cell growth was calculated relative to vehicle treated control wells. Concentration of compound that inhibits 50% of cell growth (IC50) was interpolated using nonlinear regression (Levenberg-Marquardt) and the equation, y=Vmax*(1−(x/(K+x)))+Y2, where “K” was equal to the IC50.

HT29 = assay: Cell-Titer Glo Cell Growth Inhibition Assay, HT29; type: cell-based; conditions: Homo sapiens, HT-29, CellTiter-Glo, 72 h, read-out: CTG HT29 IC50
Method: as §1

P388 = assay: Cell-Titer Glo Cell Growth Inhibition Assay, P388; type: cell-based, murine; conditions: Mus musculus, CellTiter-Glo, 72 h, read-out: CTG P388 IC50
Method: as §1

[1] = test system: Normal human foreskin fibroblasts (HFF); assay: Methylene Blue Cell Growth Inhibition Assay, HFF; type: cell-based; conditions: Fibroblast, 72 h, read-out: MEB HFF IC50
Method: as §2

Row | IC50 (Colo 205) | IC50 (HCT116) | IC50 (HT29) | IC50 (P388) | Structure (SMILES) | IC50 [1]
1 | < 100 nM | 100 to 1000 nM | < 100 nM | 100 to 1000 nM | C[C@@H](Oc1cc(-n2cnc3cc(-c4ccc(N5CCNCC5)nc4)ccc32)sc1C(N)=O)c1ccccc1C(F)(F)F [Example 1, 5-{5-[6-(1-piperazinyl)-3-pyridinyl]-1H-benzimidazol-1-yl}-3-({(1R)-1-[2-(trifluoromethyl)phenyl]ethyl}oxy)-2-thiophenecarboxamide] | > 1000 nM
2 | < 100 nM | 100 to 1000 nM | < 100 nM | < 100 nM | C[C@@H](Oc1cc(-n2cnc3cc(-c4ccc(N5CCNCC5)nc4)ccc32)sc1C(N)=O)c1ccccc1Cl [Example 7, 3-{[(1R)-1-(2-Chlorophenyl)ethyl]oxy}-5-{5-[6-(1-piperazinyl)-3-pyridinyl]-1H-benzimidazol-1-yl}-2-thiophenecarboxamide] | 

Row | Structure (SMILES) | IC50 (Colo 205) | IC50 (HCT116) | IC50 (HT29) | IC50 (P388) | IC50 [1]
3 | C[C@@H](Oc1cc(-n2cnc3cc(-c4cnn(C)c4)ccc32)sc1C(N)=O)c1ccccc1Cl [Example 9, 3-{[(1R)-1-(2-Chlorophenyl)ethyl]oxy}-5-[5-(1-methyl-1H-pyrazol-4-yl)-1H-benzimidazol-1-yl]-2-thiophenecarboxamide] | < 100 nM | < 100 nM | < 100 nM | 100 to 1000 nM | 100 to 1000 nM
